From patent US20140123342A1, “Regulation of Stomatal Apertures by Apyrases and Extracellular Nucleotides” (BOARD OF REGENTS, THE UNIVERSITY OF TEXAS SYSTEM, priority 2011, published 2014)

What was measured:
Type in all cases: cell-based, Arabidopsis thaliana
[1] = tested on: stomata (guard cells) in whole leaves; assay: Stomatal aperture opening studies, whole leaves in the dark; conditions: whole leaf studies (data not shown)
Protocol: (§1) Stomatal Aperture Studies: Arabidopsis thaliana ecotypes Columbia (Col-0) and Wassilewskija (WS) were used as wild types in this study. Col-0, nia1nia2, atrbohD/F, R2-4A and WS plants were all grown on autoclaved Metro-Mix 200 soil at 22° C. under continuous light. The mutant seeds nia1nia2 nia2-5; CS 2356; Col-0 background) were obtained from Dr. N. M. Crawford (University of California at San Diego) and the mutant seeds atrbohD/F (Col-0 background) were obtained from Dr. J. M. Kwak (University of Maryland). The RNAi mutant apyrase line (R2-4A) is in WS background, so WS ecotype was used as the control wild type for these studies. Leaves from 2 to 3 week old Col-0 plants, or R2-4A and WS plants treated with 4 μM estradiol for 1 week after development of mature basal leaves were used for peel and whole leaf studies. Plants were placed in the dark and watered 24 h before an study. For opening studies, plants were used immediately after 24 h dark treatment and all treatments were done in the dark except for the light treated leaves or peels, thus the control stomata are dark controls. For closure studies, plants were placed in the light 3 h before an study to induce stomatal opening and all treatments were done in the light, thus the control stomata are light controls. For peel studies, epidermal peels were made from the underside of the leaf and treatments were applied to the peels for 1 h. For whole leaf studies, leaves were removed and treatments were applied for 2 h. For each treatment, about 3 or 4 peels collected from different leaves or 3 or 4 different leaves of at least two different plants were floated with the abaxial side up in petri dishes on 3 mL of Arabidopsis leaf buffer consisting of 10 mM KCl, 25 mM MES pH 6.15 (Melotto et al., 2006) and the chemical being tested. For whole leaf studies peels were collected after the treatment.
For studies testing the effects of ATPγS, ADPγS, AMPS, RB2, and PPADS (Sigma, St. Louis, Mo., USA) 20 mM stocks were made by dissolving the compounds in de-ionized water. For studies testing the effects of apyrase inhibitors, 7.5 mg/mL of NGXT191 and of inhibitor #13 (Windsor et al., 2002) was dissolved in dimethyl sulfoxide (DMSO) and then applied at a dilution of […] for a final concentration of 0.1% DMSO. ABA (Sigma, St. Louis, Mo., USA) was dissolved in ethanol in 10 mM stocks and then applied at a dilution of 1:1000. The stocks were stored at −20° C. while not in use. The production of the anti-AtAPY1 antibodies used is described by Steinebrunner et al. (2003). […] The concentration of the immune and pre-immune sera, determined by Bradford assay (Bio-Rad), was 10.2 μg/mL and 7.7 μg/mL, respectively.
(§2) After treatment, photos of stomata were taken using a light microscope at 20×. Stomatal aperture width was measured using the image processing software ImageJ. Typically, photos were taken of 70 to 90 stomata per treatment of which only 50 stomata were measured for each treatment. For each treatment the ratio of closed stomata (width of 0) to open stomata was determined for all stomata imaged and this ratio was maintained in the 50 stomata that were measured for each treatment. Data shown uses apertures determined as width/length, however data in all studies also obtained as width only and generally width/length and width only data are in agreement with each other. Statistical significance of the measurements for the treatments was determined using the Student's t test in Microsoft Excel.

[2] = tested on: stomata (guard cells) in whole leaves; assay: Stomatal aperture closure studies, whole leaves in the light
Protocol: as §1
(§3) For studies testing the effects of ATPγS, ADPγS, AMPS, RB2, and PPADS (Sigma, St. Louis, Mo., USA) 20 mM stocks were made by dissolving the compounds in de-ionized water. For studies testing the effects of apyrase inhibitors, 7.5 mg/mL of NGXT191 and of inhibitor #13 (Windsor et al., 2002) was dissolved in dimethyl sulfoxide (DMSO) and then applied at a dilution of […] for a final concentration of 0.1% DMSO. ABA (Sigma, St. Louis, Mo., USA) was dissolved in ethanol in 10 mM stocks and then applied at a dilution of 1:1000. The stocks were stored at −20° C. while not in use. The production of the anti-AtAPY1 antibodies used is described by Steinebrunner et al. (2003). The crude immune and pre-immune sera were purified using protein A-Sepharose following the protocol described by Martin (1982) with the slight modification that the buffers used were azide-free. The protein-A purified sera were both used at a 1:1000 dilution in leaf stomatal aperture studies. The concentration of the immune and pre-immune sera, determined by Bradford assay (Bio-Rad), was 10.2 μg/mL and 7.7 μg/mL, respectively.
as §2

[3] = tested on: stomata (guard cells) in epidermal peels; assay: Stomatal aperture opening studies, epidermal peels in the dark; conditions: for effect on stomatal aperture: darkness, 1 h
Protocol: as §1, §3, §2

[4] = tested on: stomata of atrbohD/F mutant leaves; assay: Stomatal closing studies with whole leaves of atrbohD/F mutant; conditions: 200 ATPγS
Protocol: (§4) Stomatal Aperture Studies: Arabidopsis thaliana ecotypes Columbia (Col-0) and Wassilewskija (WS) were used as wild types in this study. Col-0, nia1nia2, atrbohD/F, R2-4A and WS plants were all grown on autoclaved Metro-Mix 200 soil at 22° C. under continuous light. The mutant seeds nia1nia2 nia2-5; CS 2356; Col-0 background) were obtained from Dr. N. M. Crawford (University of California at San Diego) and the mutant seeds atrbohD/F (Col-0 background) were obtained from Dr. J. M. Kwak (University of Maryland). The RNAi mutant apyrase line (R2-4A) is in WS background, so WS ecotype was used as the control wild type for these studies. […]
as §2, with “Statistical significance of the measurements for the treatments was determined using the Student's t test in Microsoft Excel.” left out

[5] = tested on: stomata of nia1nia2 mutant leaves; assay: Stomatal closing studies with whole leaves of nia1nia2 mutant; conditions: 200 ATPγS
Protocol: as §4
as §2, with “Statistical significance of the measurements for the treatments was determined using the Student's t test in Microsoft Excel.” left out

[6] = tested on: NO in guard cells; assay: Detection and quantification of NO (DAF-2 DA fluorescence); conditions: 200 μM, leaf epidermal tissue, after 45 min
Protocol: (§5) Detection and Quantification of H2O2 and NO: Col-0 plants were grown on soil for 2 to 4 weeks under continuous light at 21° C. Plants were placed in the dark for 24 h to ensure closure and then transferred to the light for 1 h. After 1 h in the light, mature basal leaves were excised and blended in a Waring blender on the low setting for approximately 10 s to isolate epidermal tissues, and the tissues were placed in 3 mL of 30 mM KCl, 10 mM Mes-KOH, pH 6.16 buffer in light for 2 h (Pei et al., 2000; Murata et al., 2001). DAF-2 DA and H2DCFDA were dissolved in DMSO to produce 5 mM and 10 mM stock solutions, respectively, and these were stored at −20° C. in 30 μL, aliquots. Fifty μM H2DCFDA or 15 μM DAF-2 DA was added to the medium in the dark, and after 30 min, 10 μM ABA, 200 μM ATPγS, or buffer (ATP control) was also added to the medium in the dark for 30 min. Peels were then rinsed by decanting the treatment solution and adding 3 mL fresh leaf buffer to the peels. Peels were rinsed twice as described. A peel from each of the three treatments (ABA, ATPγS and buffer) were placed on the same microscope slide and observed sequentially. A second study was staggered 30 to 45 min after the first by loading the H2DCFDA or DAF-2 DA dye to new peels 30 to 45 min after the first round of dye was added. Confocal laser scanning microscopy (CLSM) was performed with a Leica SP2 AOBS confocal microscope (Leica Microsystems, Bannockburn, Ill., USA). Laser power was set at 15%, with an excitation of 488 nm and an emission of 525 nm. A series of 0.5 μm optical sections with average intensity projection along the z axis were collected and made into one 2D image with greater focal depth. All images were obtained with the same software scanning settings including detector gain and laser intensity settings.

[7] = tested on: H2O2 in guard cells; assay: Detection and quantification of H2O2 (H2DCFDA fluorescence); conditions: 200 μM, leaf epidermal tissue, after 30 min
Protocol: as §5

[8] = tested on: stomata (guard cells) in epidermal peels; assay: Stomatal aperture closure studies, epidermal peels in the light; conditions: for effect on stomatal aperture: epidermal peels, light, 1 h
Protocol: as §1, §3, §2

## Nc1ncnc2c1ncn2[C@@H]1O[C@H](COP(=O)(O)OP(=O)(O)OP(O)(O)=S)[C@@H](O)[C@H]1O [ATPγS]
[1]
  threshold concentration for stomatal opening: higher than 5 μM
[2]; 200 μM, leaves, light, 2 h
  effect on stomatal aperture: induced stomatal closure
[2]; whole leaf studies, compared with peel studies (150 to 200 μM; not shown)
  threshold for nucleotide-induced stomatal closure: same threshold
[3]; 5 μM
  effect on stomatal aperture: induced opening
[3]; 15 μM
  effect on stomatal aperture: induced opening
[3]; low concentrations (5 and 15 μM)
  mean stomatal aperture compared with light treatment: smaller than the aperture induced by light treatment
[4]
  effect on stomatal aperture: no effect on stomatal aperture
[5]
  effect on stomatal aperture: no effect on stomatal aperture
[6]
  increase in DAF-2 DA fluorescence in guard cells: 2.5 fold
[7]
  increase in H2DCFDA fluorescence in guard cells: 3 fold
[8]; 150 μM
  effect on stomatal aperture: no statistically significant effect
[8]; 200 μM versus 10 μM ABA
  mean stomatal aperture after closure compared with ABA: statistically the same as the aperture induced by treatment with 10 μM ABA
[8]; 200 μM
  effect on stomatal aperture: induced stomatal closure
[8]; 250 μM
  effect on stomatal aperture: induced stomatal closure
